Reference: patent US20110015068A1, “Herbicidal Compositions Comprising Pyroxasulfone V” (BASF SE, priority 2008, published 2011)
Like-named read-outs stand apart in the source and are kept apart here.

Columns and labels:
[1] = system: Setaria faberii; test: pre-emergence greenhouse test, SETFA; type: in vivo; settings: Setaria faberi, read-out: observed % activity; for inhibition at 25 g/ha: 25 g ai/ha; for inhibition at 50 g/ha: 50 g ai/ha
Text: (§1) For the pre-emergence treatment, directly after sowing the active compounds, which had been suspended or emulsified in water, were applied by means of finely distributed nozzles. The containers were irrigated gently to promote germination and growth and subsequently covered with transparent plastic hoods until plant had rooted. This cover caused uniform germination of the tests plants, unless this was adversely affected by active compounds.
(§2) The respective herbicides A and/or safener were formulated as 10% by weight strength suspension concentrate and introduced to the spray liquor with the amount of solvent system used for applying the active compound. Herbicide B and/or safener were used as commercially available formulations and introduced to the spray liquor with the amount of solvent system used for applying the active compound. In the examples, the solvent used was water.
(§3) The test period extended over 21 days. During this time, the plants were tended, and their response to the treatments with active compound was evaluated.
(§4) The evaluation for the damage caused by the chemical compositions was carried out using a scale from 0 to 100%, compared to the untreated control plants. Here, 0 means no damage and 100 means complete destruction of the plants.

[2] = system: Alopecurus myosuroides; test: pre-emergence greenhouse test, ALOMY; type: in vivo; settings: Alopecurus myosuroides, 50 g ai/ha, read-out: observed % activity
Text: as §1, §2, §3, §4

[3] = system: Bromus inermis; test: pre-emergence greenhouse test, BROIN; type: in vivo; settings: Bromus inermis, 25 g ai/ha, read-out: observed % activity
Text: as §1, §2, §3, §4

[4] = system: Sorghum halepense; test: pre-emergence greenhouse test, SORHA; type: in vivo; settings: Sorghum halepense, 25 g ai/ha, read-out: observed % activity
Text: as §1, §2, §3, §4

[5] = system: Chenopodium album; test: pre-emergence greenhouse test, CHEAL; type: in vivo; settings: Chenopodium album, read-out: observed % activity; for inhibition at 25 g/ha: 25 g ai/ha; for inhibition at 50 g/ha: 50 g ai/ha
Text: as §1, §2, §3, §4

[6] = system: Ipomoea purpurea; test: pre-emergence greenhouse test, PHBPU; type: in vivo; settings: Ipomoea purpurea, read-out: observed % activity; for inhibition at 25 g/ha: 25 g ai/ha; for inhibition at 50 g/ha: 50 g ai/ha
Text: as §1, §2, §3, §4

[7] = system: Matricaria inermis; test: pre-emergence greenhouse test, MATIN; type: in vivo; settings: Matricaria, read-out: observed % activity; for inhibition at 25 g/ha: 25 g ai/ha; for inhibition at 50 g/ha: 50 g ai/ha
Text: as §1, §2, §3, §4

[8] = system: Kochia scoparia; test: pre-emergence greenhouse test, KCHSC; type: in vivo; settings: Bassia scoparia, 25 g ai/ha, read-out: observed % activity
Text: as §1, §2, §3, §4

[9] = system: Echinochloa crus-galli; test: post-emergence greenhouse test, ECHCG; type: in vivo; settings: for inhibition at 13 g/ha: Echinochloa crus-galli, 13 g ai/ha, read-out: observed % activity
Text: (§5) For the post-emergence treatment, the test plants were first grown to a height of 3 to 20 cm, depending on the plant habit, and only then treated. Here, the herbicidal compositions were suspended or emulsified in water as distribution medium and sprayed using finely distributing nozzles.
as §2, §3, §4

[10] = system: Alopecurus myosuroides; test: post-emergence greenhouse test, ALOMY; type: in vivo; settings: for observed activity in % destruction: Table 3; for inhibition at 13 g/ha / inhibition at 100 g/ha: Alopecurus myosuroides, read-out: observed % activity; for inhibition at 13 g/ha: 13 g ai/ha
Text: as §5, §2, §3, §4

[11] = system: Sorghum halepense; test: post-emergence greenhouse test, SORHA; type: in vivo; settings: Sorghum halepense, 50 g ai/ha, read-out: observed % activity
Text: as §5, §2, §3, §4

[12] = system: Solanum nigrum; test: post-emergence greenhouse test, SOLNI; type: in vivo; settings: Solanum nigrum, read-out: observed % activity; for inhibition at 13 g/ha: 13 g ai/ha; for inhibition at 100 g/ha: 100 g ai/ha
Text: as §5, §2, §3, §4

[13] = system: Xanthium strumarium; test: post-emergence greenhouse test, XANST; type: in vivo; settings: Xanthium strumarium, read-out: observed % activity; for inhibition at 13 g/ha: 13 g ai/ha; for inhibition at 25 g/ha: 25 g ai/ha; for inhibition at 100 g/ha: 100 g ai/ha
Text: as §5, §2, §3, §4

[14] = system: Galium aparine; test: post-emergence greenhouse test, GALAP; type: in vivo; settings: for inhibition at 25 g/ha / inhibition at 100 g/ha: Galium aparine, read-out: observed % activity; for inhibition at 25 g/ha: 25 g ai/ha; for inhibition at 100 g/ha: 100 g ai/ha
Text: as §5, §2, §3, §4

[15] = system: Kochia scoparia; test: post-emergence greenhouse test, KCHSC; type: in vivo; settings: Bassia scoparia, read-out: observed % activity; for inhibition at 13 g/ha: 13 g ai/ha; for inhibition at 100 g/ha: 100 g ai/ha
Text: as §5, §2, §3, §4

[16] = system: Digitaria sanguinalis; test: post-emergence greenhouse test, DIGSA; type: in vivo; settings: 20 DAT
Text: as §5, §2, §3, §4

[17] = system: Lolium multiflorum; test: post-emergence greenhouse test, LOLMU; type: in vivo; settings: 20 DAT
Text: as §5, §2, §3, §4

[18] = system: Setaria faberii; test: post-emergence greenhouse test, SETFA; type: in vivo; settings: 50 g ai/ha, 20 DAT
Text: as §5, §2, §3, §4

[19] = system: Setaria viridis; test: post-emergence greenhouse test, SETVI; type: in vivo; settings: 25 g ai/ha, 20 DAT, Table 3
Text: as §5, §2, §3, §4

[20] = system: Matricaria inermis; test: post-emergence greenhouse test, MATIN; type: in vivo; settings: 20 DAT
Text: as §5, §2, §3, §4

[21] = system: harmful plants; settings: known from Y. Yamaji et al., 2006; cited from earlier work

Cn1nc(C(F)(F)F)c(CS(=O)(=O)C2=NOC(C)(C)C2)c1OC(F)F [pyroxasulfone, 3-[5-(difluoromethoxy)-1-methyl-3-(trifluoromethyl)pyrazol-4-ylmethylsulfonyl]-4,5-dihydro-5,5-dimethyl-1,2-oxazole]
inhibition at 25 g/ha ([1]; 192 h, 8 DAT): 85%
inhibition at 50 g/ha ([1]; 192 h, 8 DAT): 90%
inhibition at 25 g/ha ([1]; 480 h, 20 DAT): 98%
inhibition at 50 g/ha ([1]; 480 h, 20 DAT): 98%
inhibition at 50 g/ha ([2]; 192 h, 8 DAT): 90%
inhibition at 50 g/ha ([2]; 480 h, 20 DAT): 98%
inhibition at 25 g/ha ([3]; 192 h, 8 DAT): 60%
inhibition at 25 g/ha ([3]; 480 h, 20 DAT): 75%
inhibition at 25 g/ha ([4]; 192 h, 8 DAT): 75%
inhibition at 25 g/ha ([4]; 480 h, 20 DAT): 95%
inhibition at 25 g/ha ([5]; 192 h, 8 DAT): 65%
inhibition at 50 g/ha ([5]; 192 h, 8 DAT): 70%
inhibition at 25 g/ha ([5]; 480 h, 20 DAT): 95%
inhibition at 50 g/ha ([5]; 480 h, 20 DAT): 98%
inhibition at 25 g/ha ([6]; 192 h, 8 DAT): 40%
inhibition at 50 g/ha ([6]; 192 h, 8 DAT): 65%
inhibition at 25 g/ha ([6]; 480 h, 20 DAT): 50%
inhibition at 50 g/ha ([6]; 480 h, 20 DAT): 90%
inhibition at 25 g/ha ([7]; 192 h, 8 DAT): 0%
inhibition at 50 g/ha ([7]; 192 h, 8 DAT): 20%
inhibition at 25 g/ha ([7]; 480 h, 20 DAT): 60%
inhibition at 50 g/ha ([7]; 480 h, 20 DAT): 85%
inhibition at 25 g/ha ([8]; 192 h, 8 DAT): 40%
inhibition at 25 g/ha ([8]; 480 h, 20 DAT): 98%
observed activity in % destruction ([9]; 50 g ai/ha, 20 DAT, Table 3): 80%
inhibition at 13 g/ha ([9]; 192 h, 8 DAT): 25%
inhibition at 13 g/ha ([9]; 480 h, 20 DAT): 80%
observed activity in % destruction ([10]; 50 g ai/ha, 20 DAT): 55%
observed activity in % destruction ([10]; 100 g ai/ha, 20 DAT): 80%
inhibition at 13 g/ha ([10]; 192 h, 8 DAT): 0%
inhibition at 100 g/ha ([10]; 192 h, 100 g ai/ha, 8 DAT): 40%
inhibition at 13 g/ha ([10]; 480 h, 20 DAT): 15%
inhibition at 100 g/ha ([10]; 480 h, 100 g ai/ha, 20 DAT): 75%
inhibition at 50 g/ha ([11]; 192 h, 8 DAT): 65%
inhibition at 50 g/ha ([11]; 480 h, 20 DAT): 90%
inhibition at 13 g/ha ([12]; 192 h, 8 DAT): 75%
inhibition at 100 g/ha ([12]; 192 h, 8 DAT): 75%
inhibition at 13 g/ha ([12]; 480 h, 20 DAT): 75%
inhibition at 100 g/ha ([12]; 480 h, 20 DAT): 90%
inhibition at 13 g/ha ([13]; 192 h, 8 DAT): 0%
inhibition at 25 g/ha ([13]; 192 h, 8 DAT): 20%
inhibition at 100 g/ha ([13]; 192 h, 8 DAT): 25%
inhibition at 13 g/ha ([13]; 480 h, 20 DAT): 0%
inhibition at 25 g/ha ([13]; 480 h, 20 DAT): 25%
inhibition at 100 g/ha ([13]; 480 h, 20 DAT): 55%
observed activity in % destruction ([14]; 12.5 g ai/ha, 20 DAT, Table 4): 40%
inhibition at 25 g/ha ([14]; 192 h, 8 DAT): 60%
inhibition at 100 g/ha ([14]; 192 h, 8 DAT): 70%
inhibition at 25 g/ha ([14]; 480 h, 20 DAT): 85%
inhibition at 100 g/ha ([14]; 480 h, 20 DAT): 90%
inhibition at 13 g/ha ([15]; 192 h, 8 DAT): 60%
inhibition at 100 g/ha ([15]; 192 h, 8 DAT): 60%
inhibition at 13 g/ha ([15]; 480 h, 20 DAT): 50%
inhibition at 100 g/ha ([15]; 480 h, 20 DAT): 70%
observed activity in % destruction ([16]; 12.5 g ai/ha, Table 4): 50%
observed activity in % destruction ([16]; 50 g ai/ha, Table 3): 80%
observed activity in % destruction ([17]; 12.5 g ai/ha, Table 3): 55%
observed activity in % destruction ([17]; 25 g ai/ha, Table 3): 55%
observed activity in % destruction ([17]; 50 g ai/ha, Table 4): 55%
observed activity in % destruction ([18]; Table 3): 85%
observed activity in % destruction ([18]; Table 4): 85%
observed activity in % destruction [19]: 75%
observed activity in % destruction ([20]; 12.5 g ai/ha, Table 3): 0%
observed activity in % destruction ([20]; 25 g ai/ha, Table 3): 0%
observed activity in % destruction ([20]; 25 g ai/ha, Table 4): 0%
post-emergence activity [21]: poor
